{
  "source": "patent US11608320B2",
  "about": "“Oxazolidinone hydroxamic acid derivatives” (KUWAIT UNIVERSITY, priority 2020, dated 2023)",
  "key": {"[1]": {"test_system": "LTC4 release from IgE/antigen-activated mouse mast cells (BMMC)", "assay": "Inhibition of LTC4 release in allergen/IgE-activated bone marrow-derived mouse mast cells", "format": "cell-based", "details": "BMMC, anti-DNP IgE sensitized, DNP-BSA 30 ng/ml, 30 min", "excerpt": "Inhibition of LTC4 release and degranulation in allergen/IgE-activated bone marrow-derived mouse mast cells (BMMC): Bone marrow-derived mast cells (BMMC) were generated from pathogen-free 5-7 week old male Balb/c mice according to the method of Davis et al., [2004] (Davis, B. J., et al., (2004), Journal of Immunology, 173: 6914-6920). Essentially, bone marrow cells were obtained by flushing of the femoral bone marrow and cultured in RPMI 1640 medium supplemented with 10% FBS, 100 U/ml penicillin, and 100 μg/ml streptomycin, 25 mM HEPES, 1.0 mM sodium pyruvate, 0.1 mM nonessential amino acids, 0.0035% 2-mercaptoethanol, and 30 ng/ml mouse recombinant IL-3, with culture medium replaced every two days. Cells were used after 4-8 weeks of culture, by which time at least 97% of the cells would have differentiated into mast cells.\nThe generated BMMCs were seeded at 5×10^4 cells/well in a 96-well flat-bottom culture plate and passively sensitized overnight with 0.5 μg/ml anti-DNP monoclonal IgE antibody (clone SPE-7, Sigma-Aldrich, St. Louis, Mo., USA). The cells were then washed twice to remove any unbound antibody and subsequently re-suspended in reaction buffer (135 mM NaCl, 5 mM KCl, 1.8 mM CaCl2), 1 mM MgCl2, 5.6 mM glucose, 0.05% BSA and 20 mM HEPES, pH 7.4). They were then pre-incubated with the test compounds (0.01-30 μM) or the solvent (0.05% DMSO) for 15 min before being stimulated with the specific antigen, DNP-BSA (30 ng/ml). After 30 min incubation at 37° C., the amount of LTC4 released into the supernatant (as index of 5-LO activity) was determined by ELISA as described below.\nAssay of released leukotrienes/β-hexoseaminidase enzyme: Appropriately diluted supernatants were assayed for the released LTs (LTB4 and LTC4), by the enzyme immunoassay (EIA) method using assay kits supplied by R&D Systems (Minneapolis, Minn., USA) and following the manufacturer's instructions."}, "[2]": {"target": "T1, recombinant human 5-LO enzyme (Homo sapiens, UniProt P09917)", "T1 sequence (P09917 1-674)": "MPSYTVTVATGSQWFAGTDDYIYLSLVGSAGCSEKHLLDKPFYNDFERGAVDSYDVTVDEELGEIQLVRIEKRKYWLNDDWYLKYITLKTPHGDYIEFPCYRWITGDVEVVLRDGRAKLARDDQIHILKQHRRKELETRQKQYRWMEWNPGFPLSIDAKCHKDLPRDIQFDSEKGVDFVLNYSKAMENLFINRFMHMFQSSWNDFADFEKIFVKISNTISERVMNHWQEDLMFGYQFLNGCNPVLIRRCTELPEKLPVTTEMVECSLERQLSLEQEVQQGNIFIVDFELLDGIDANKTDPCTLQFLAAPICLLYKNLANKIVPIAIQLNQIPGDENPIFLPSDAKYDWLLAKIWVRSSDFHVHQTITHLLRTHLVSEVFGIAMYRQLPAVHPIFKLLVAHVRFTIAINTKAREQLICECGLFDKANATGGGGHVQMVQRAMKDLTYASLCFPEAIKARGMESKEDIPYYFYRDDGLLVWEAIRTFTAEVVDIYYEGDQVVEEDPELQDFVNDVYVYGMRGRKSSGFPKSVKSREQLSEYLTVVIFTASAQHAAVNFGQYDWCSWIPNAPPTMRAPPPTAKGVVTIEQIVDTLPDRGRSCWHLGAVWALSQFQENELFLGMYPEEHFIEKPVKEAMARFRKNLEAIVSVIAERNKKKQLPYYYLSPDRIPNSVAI", "assay": "Direct 5-LO inhibitory activity in a cell-free assay (H2DCF-DA fluorescence)", "format": "biochemical", "details": "cell-free, recombinant human 5-LO; read-out: Inhibitory Activity IC50, Human recomb. 5-LO", "procedure": "H2DCF-DA (60 μM) was first pre-cleaved by incubating with 450 mU/ml recombinant human 5-LO enzyme in Tris buffer (containing 50 mM Tris, pH=7.5, 2 mM EDTA, 2 mM CaCl2), 1 mM dithiothreitol (DTT) and 0.6 U/ml glutathione peroxidase) for 10 min at room temperature. […] After 10 min incubation at room temperature, the reaction was started with the addition of 50 μl of the substrate solution (Tris buffer containing 20 μM ATP and 20 μM arachidonic acid). After a further 20 min, the reaction was terminated with 100 μl acetonitrile. Fluorescence was read at 500 nm excitation and 520 emission, with Novostar® microplate reader (BMG Labtech, Offenburg, Germany). Appropriate controls, including 100 μM nordihydroguaiaretic acid (NDGA), were included to isolate only the 5-LO-attributable, NDGA-inhibitable RFU values."}},
  "data": [
    {"smiles": "CCCCCCCC(=O)N(O)C[C@H]1CN(c2ccc(N3CCOCC3)c(F)c2)C(=O)O1", "note": "[PH-251, (R)—N-((3-(3-fluoro-4-morpholinophenyl)-2-oxooxazolidin-5-yl)methyl)-N-hydroxyoctanamide]", "values": [
      {"measurement": "Inhibition of generation of LTC4 from IgE/allergen-activated mast cells (FIG. 2A)", "setting": "[1]", "value": "equally effective in inhibiting the generation of LTC4"},
      {"measurement": "IC50", "setting": "[2]", "value": 1600, "unit": "nM"}
    ]}
  ]
}
